Assay results taken from US10604554B2, “Double-acylated GLP-1 derivatives” (Novo Nordisk A/S, priority 2012, dated 2020).
Where two headings read alike, the source gives them in different places. Numbered stars: 1 amine (or outer) side, 2 acyl side, 3 side chain; on linkers, the order of the positions; unused ones are H or OH. Square brackets hold non-standard residues; d marks the D form. Side chains are listed from the residue outwards. Peptide text beside a SMILES is read from it. * marks the point of attachment. Decanoyl(10-(4-HOOC-PhO)) = O=C(O)c1ccc(OCCCCCCCCCC(=O)*)cc1; γGlu = O=C(O)[C@H](CCC(=O)[*:2])N[*:1]; εLys = N[C@@H](CCCCN[*:1])C(=O)[*:2]; AEEA = NCCOCCOCC(=O)O; Aib = CC(C)(N)C(=O)O

Target: T1, human GLP-1 receptor (Homo sapiens, UniProt P43220)
T1 construct: expressed in transfected cells; host or cells: BHK cells, clone FCW467-12A/KZ10-1 (parent line BHKTS13), further transfected with CRE luciferase
Assay: GLP-1 receptor binding (SPA, displacement of 125I-GLP-1)
Outline: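 Tracer [125I]-GLP-1(7-36)NH2 at 0.06 nM final competed on hamster stably transfected cell membranes captured by WGA SPA beads; 120 min, 30 °C, scintillation count.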

[1] = Receptor binding affinity IC50 (high HSA), 2.0% HSA (high albumin)
[2] = Receptor binding affinity IC50 (low HSA), 0.001% HSA (low albumin)

T1 sequence (P43220 24-463): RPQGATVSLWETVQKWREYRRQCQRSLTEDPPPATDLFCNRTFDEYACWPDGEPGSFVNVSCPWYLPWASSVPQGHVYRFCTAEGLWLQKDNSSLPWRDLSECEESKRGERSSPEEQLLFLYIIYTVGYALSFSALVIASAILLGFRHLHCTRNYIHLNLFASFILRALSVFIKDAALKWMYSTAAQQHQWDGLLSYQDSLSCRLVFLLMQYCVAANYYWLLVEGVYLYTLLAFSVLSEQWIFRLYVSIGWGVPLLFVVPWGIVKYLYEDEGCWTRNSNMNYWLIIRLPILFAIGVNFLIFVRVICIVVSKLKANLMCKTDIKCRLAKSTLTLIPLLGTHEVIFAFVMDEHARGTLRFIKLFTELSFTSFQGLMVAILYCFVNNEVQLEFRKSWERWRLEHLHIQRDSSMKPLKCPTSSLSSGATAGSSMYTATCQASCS

SMILES	IC50 [1]	IC50 [2]	IC50 (0.001% HSA (low albumin), read-out: Receptor binding affinity IC50 (low HSA))
CC[C@H](C)[C@H](NC(=O)[C@H](Cc1ccccc1)NC(=O)[C@H](CCC(=O)O)NC(=O)[C@H](CCCCNC(=O)[C@@H](N)CCCCNC(=O)CC[C@H](NC(=O)CC[C@H](NC(=O)CC[C@H](NC(=O)CCCCCCCCCCCOc1ccc(C(=O)O)cc1)C(=O)O)C(=O)O)C(=O)O)NC(=O)[C@H](C)NC(=O)[C@H](C)NC(=O)[C@H](CCC(N)=O)NC(=O)CNC(=O)[C@H](CCC(=O)O)NC(=O)[C@H](CC(C)C)NC(=O)[C@H](Cc1ccc(O)cc1)NC(=O)[C@H](CO)NC(=O)[C@H](CO)NC(=O)[C@@H](NC(=O)[C@H](CC(=O)O)NC(=O)[C@H](CO)NC(=O)[C@@H](NC(=O)[C@H](Cc1ccccc1)NC(=O)[C@@H](NC(=O)CNC(=O)[C@H](CCC(=O)O)NC(=O)C(C)(C)NC(=O)[C@@H](N)Cc1c[nH]cn1)[C@@H](C)O)[C@@H](C)O)C(C)C)C(=O)N[C@@H](C)C(=O)N[C@@H](Cc1c[nH]c2ccccc12)C(=O)N[C@@H](CC(C)C)C(=O)N[C@H](C(=O)N[C@@H](CCCNC(=N)N)C(=O)NCC(=O)N[C@@H](CCCNC(=N)N)C(=O)N[C@@H](CCCCNC(=O)[C@@H](N)CCCCNC(=O)CC[C@H](NC(=O)CC[C@H](NC(=O)CC[C@H](NC(=O)CCCCCCCCCCCOc1ccc(C(=O)O)cc1)C(=O)O)C(=O)O)C(=O)O)C(=O)O)C(C)C [Example 17, N^ε26-[(2S)-2-amino-6-[[(4S)-4-carboxy-4-[[(4S)-4-carboxy-4-[[(4S)-4-carboxy-4-[12-(4-carboxyphenoxy)dodecanoylamino]butanoyl]amino]butanoyl]amino]butanoyl]amino]hexanoyl], N^ε37-[(2S)-2-amino-6-[[(4S)-4-carboxy-4-[[(4S)-4-carboxy-4-[[(4S)-4-carboxy-4-[12-(4-carboxyphenoxy)dodecanoylamino]butanoyl]amino]butanoyl]amino]butanoyl]amino]hexanoyl]-[Aib^8,Arg^34,Lys^37]-GLP-1-(7-37)-peptide]	632 nM	0.42 nM	
CC[C@H](C)[C@H](NC(=O)[C@H](Cc1ccccc1)NC(=O)[C@H](CCC(=O)O)NC(=O)[C@H](CCCCNC(=O)[C@@H](N)CCCCNC(=O)[C@@H](N)CCCCNC(=O)CC[C@H](NC(=O)CCCCCCCCCCOc1ccc(C(=O)O)cc1)C(=O)O)NC(=O)[C@H](C)NC(=O)[C@H](C)NC(=O)[C@H](CCC(N)=O)NC(=O)CNC(=O)[C@H](CCC(=O)O)NC(=O)[C@H](CC(C)C)NC(=O)[C@H](Cc1ccc(O)cc1)NC(=O)[C@H](CO)NC(=O)[C@H](CO)NC(=O)[C@@H](NC(=O)[C@H](CC(=O)O)NC(=O)[C@H](CO)NC(=O)[C@@H](NC(=O)[C@H](Cc1ccccc1)NC(=O)[C@@H](NC(=O)CNC(=O)[C@H](CCC(=O)O)NC(=O)C(C)(C)NC(=O)[C@@H](N)Cc1c[nH]cn1)[C@@H](C)O)[C@@H](C)O)C(C)C)C(=O)N[C@@H](C)C(=O)N[C@@H](Cc1c[nH]c2ccccc12)C(=O)N[C@@H](CC(C)C)C(=O)N[C@H](C(=O)N[C@@H](CCCNC(=N)N)C(=O)NCC(=O)N[C@@H](CCCNC(=N)N)C(=O)N[C@@H](CCCCNC(=O)[C@@H](N)CCCCNC(=O)[C@@H](N)CCCCNC(=O)CC[C@H](NC(=O)CCCCCCCCCCOc1ccc(C(=O)O)cc1)C(=O)O)C(=O)O)C(C)C [Example 20, N^ε26-[(2S)-2-amino-6-[[(2S)-2-amino-6-[[(4S)-4-carboxy-4-[11-(4-carboxyphenoxy)undecanoylamino]butanoyl]amino]hexanoyl]amino]hexanoyl], N^ε37-[(2S)-2-amino-6-[[(2S)-2-amino-6-[[(4S)-4-carboxy-4-[11-(4-carboxyphenoxy)undecanoylamino]butanoyl]amino]hexanoyl]amino]hexanoyl]-[Aib^8,Arg^34,Lys^37]-GLP-1-(7-37)-peptide]	48 nM	0.13 nM	
CC[C@H](C)[C@H](NC(=O)[C@H](Cc1ccccc1)NC(=O)[C@H](CCC(=O)O)NC(=O)[C@H](CCCCNC(=O)[C@@H](N)CCCCNC(=O)COCCOCCNC(=O)COCCOCCNC(=O)CC[C@H](NC(=O)CCCCCCCCCCCCCCC(=O)O)C(=O)O)NC(=O)[C@H](C)NC(=O)[C@H](C)NC(=O)[C@H](CCC(N)=O)NC(=O)CNC(=O)[C@H](CCC(=O)O)NC(=O)[C@H](CC(C)C)NC(=O)[C@H](Cc1ccc(O)cc1)NC(=O)[C@H](CO)NC(=O)[C@H](CO)NC(=O)[C@@H](NC(=O)[C@H](CC(=O)O)NC(=O)[C@H](CO)NC(=O)[C@@H](NC(=O)[C@H](Cc1ccccc1)NC(=O)[C@@H](NC(=O)CNC(=O)[C@H](CCC(=O)O)NC(=O)C(C)(C)NC(=O)[C@@H](N)Cc1c[nH]cn1)[C@@H](C)O)[C@@H](C)O)C(C)C)C(=O)N[C@@H](C)C(=O)N[C@@H](Cc1c[nH]c2ccccc12)C(=O)N[C@@H](CC(C)C)C(=O)N[C@H](C(=O)N[C@@H](CCCNC(=N)N)C(=O)NCC(=O)N[C@@H](CCCNC(=N)N)C(=O)N[C@@H](CCCCNC(=O)[C@@H](N)CCCCNC(=O)COCCOCCNC(=O)COCCOCCNC(=O)CC[C@H](NC(=O)CCCCCCCCCCCCCCC(=O)O)C(=O)O)C(=O)O)C(C)C [Example 10, N^ε26-[(2S)-2-amino-6-[[2-[2-[2-[[2-[2-[2-[[(4S)-4-carboxy-4-(15-carboxypentadecanoylamino)butanoyl]amino]ethoxy]ethoxy]acetyl]amino]ethoxy]ethoxy]acetyl]amino]hexanoyl], N^ε37-[(2S)-2-amino-6-[[2-[2-[2-[[2-[2-[2-[[(4S)-4-carboxy-4-(15-carboxypentadecanoylamino)butanoyl]amino]ethoxy]ethoxy]acetyl]amino]ethoxy]ethoxy]acetyl]amino]hexanoyl]-[Aib^8,Arg^34,Lys^37]-GLP-1-(7-37)-peptide]			0.84 nM
CC[C@H](C)[C@H](NC(=O)[C@H](Cc1ccccc1)NC(=O)[C@H](CCC(=O)O)NC(=O)[C@H](CCCCNC(=O)[C@@H](N)CCCCNC(=O)COCCOCCNC(=O)COCCOCCNC(=O)CC[C@H](NC(=O)CCCCCCCCCOc1ccc(C(=O)O)cc1)C(=O)O)NC(=O)[C@H](C)NC(=O)[C@H](C)NC(=O)[C@H](CCC(N)=O)NC(=O)[C@H](CCC(=O)O)NC(=O)[C@H](CCC(=O)O)NC(=O)[C@H](CC(C)C)NC(=O)[C@H](Cc1ccc(O)cc1)NC(=O)[C@H](CO)NC(=O)[C@H](CO)NC(=O)[C@@H](NC(=O)[C@H](CC(=O)O)NC(=O)[C@H](CO)NC(=O)[C@@H](NC(=O)[C@H](Cc1ccccc1)NC(=O)[C@@H](NC(=O)CNC(=O)[C@H](CCC(=O)O)NC(=O)C(C)(C)NC(=O)[C@@H](N)Cc1c[nH]cn1)[C@@H](C)O)[C@@H](C)O)C(C)C)C(=O)N[C@@H](C)C(=O)N[C@@H](Cc1c[nH]c2ccccc12)C(=O)N[C@@H](CC(C)C)C(=O)N[C@H](C(=O)N[C@@H](CCC(N)=O)C(=O)NCC(=O)N[C@@H](CCCNC(=N)N)C(=O)N[C@@H](CCCCNC(=O)[C@@H](N)CCCCNC(=O)COCCOCCNC(=O)COCCOCCNC(=O)CC[C@H](NC(=O)CCCCCCCCCOc1ccc(C(=O)O)cc1)C(=O)O)C(=O)O)C(C)C [Example 18] (H-H[Aib]EGTFTSDVSSYLEEQAAK([εLys-AEEA-AEEA-γGlu-Decanoyl(10-(4-HOOC-PhO))])EFIAWLVQGRK([εLys-AEEA-AEEA-γGlu-Decanoyl(10-(4-HOOC-PhO))])-OH; N-terminus and C-terminus assumed)	159 nM	0.99 nM	
CC[C@H](C)[C@H](NC(=O)[C@H](Cc1ccccc1)NC(=O)[C@H](CCC(=O)O)NC(=O)[C@H](CCCCNC(=O)[C@@H](N)CCCCNC(=O)COCCOCCNC(=O)COCCOCCNC(=O)CC[C@H](NC(=O)CCCCCCCCCCCOc1ccc(C(=O)O)cc1)C(=O)O)NC(=O)[C@H](C)NC(=O)[C@H](C)NC(=O)[C@H](CCC(N)=O)NC(=O)CNC(=O)[C@H](CCC(=O)O)NC(=O)[C@H](CC(C)C)NC(=O)[C@H](Cc1ccc(O)cc1)NC(=O)[C@H](CO)NC(=O)[C@H](CO)NC(=O)[C@@H](NC(=O)[C@H](CC(=O)O)NC(=O)[C@H](CO)NC(=O)[C@@H](NC(=O)[C@H](Cc1ccccc1)NC(=O)[C@@H](NC(=O)CNC(=O)[C@H](CCC(=O)O)NC(=O)C(C)(C)NC(=O)[C@@H](N)Cc1c[nH]cn1)[C@@H](C)O)[C@@H](C)O)C(C)C)C(=O)N[C@@H](C)C(=O)N[C@@H](Cc1c[nH]c2ccccc12)C(=O)N[C@@H](CC(C)C)C(=O)N[C@H](C(=O)N[C@@H](CCCNC(=N)N)C(=O)NCC(=O)N[C@@H](CCCNC(=N)N)C(=O)N[C@@H](CCCCNC(=O)[C@@H](N)CCCCNC(=O)COCCOCCNC(=O)COCCOCCNC(=O)CC[C@H](NC(=O)CCCCCCCCCCCOc1ccc(C(=O)O)cc1)C(=O)O)C(=O)O)C(C)C [Example 14, N^ε26-[(2S)-2-amino-6-[[2-[2-[2-[[2-[2-[2-[[(4S)-4-carboxy-4-[12-(4-carboxyphenoxy)dodecanoylamino]butanoyl]amino]ethoxy]ethoxy]acetyl]amino]ethoxy]ethoxy]acetyl]amino]hexanoyl], N^ε37-[(2S)-2-amino-6-[[2-[2-[2-[[2-[2-[2-[[(4S)-4-carboxy-4-[12-(4-carboxyphenoxy)dodecanoylamino]butanoyl]amino]ethoxy]ethoxy]acetyl]amino]ethoxy]ethoxy]acetyl]amino]hexanoyl]-[Aib^8,Arg^34, Lys^37]-GLP-1-(7-37)-peptide]	154 nM	0.3 nM	
